Results reported in patent publication US8287889B2 (Wuhan Liyuanheng Pharmaceutical Technology Ltd., priority 2002, dated 2012).
Like-named read-outs stand apart in the source and are kept apart here.

Columns and labels:
[1] = tested on: liver cancer cell (Hep-G2); test: In vitro inhibition of liver cancer cell, time course; assay type: cell-based
Procedure: (§1) The relation between administering period and curable effect was intensely observed. That is to say, the inhibiting rate would be recorded according to different administering time of the medicine, such as 2, 3, 4 days administration. It is discovered that administered raw medicine of low concentration, such as 0.1 μg, 0.5 μg, 2 μg/ml, had weak inhibiting effects towards three different cancer cells. As the administering period is extended, the inhibiting effect would gradually be strengthened. […] The extension of administering period could not promptly increase the inhibiting effect. […] In short, for HT-29, A549, and Hep-G2, the maximum inhibiting effect occurred mostly at the fourth administering day, therefore illustrating a better slow-release effect of such medicine.

[2] = tested on: intestinal cancer cell (HT-29); test: In vitro inhibition of intestinal cancer cell, time course; assay type: cell-based
Procedure: as §1

[3] = tested on: lung cancer cell (A549); test: In vitro inhibition of lung cancer cell, time course; assay type: cell-based
Procedure: as §1

[4] = tested on: Kunming mice; details: 10 mice
Procedure: The mice were provided by Medical school of Tongji University and with a batch No. 19-052.
Commonly, the lethality of the mice was regarded as positive index. After the death mice of each group were recorded and calculated and a LD50 value was calculated according to the Bliss statistical method.

[5] = administering dosage 2250, intravenous
[6] = administering dosage 3713, intravenous
[7] = administering dosage 6126, intravenous
[8] = administering dosage 10108, intravenous
[9] = administering dosage 16678, intravenous

## C[C@H]1[C@H](C)CC[C@]2(C(=O)O)CC[C@]3(C)C(=CC[C@@H]4[C@@]5(C)CC[C@H](O)C(C)(C)[C@@H]5CC[C@]43C)[C@H]12 [Ursolic Acid for Injection, ursolic acid]
[1]; Hep-G2, 10, 50 μg/ml, third day of administration
  peak inhibiting effect: 95%
[1]; Hep-G2, high concentration 10, 50 μg/ml
  inhibiting effect: strong
[1]; Hep-G2, low concentration 0.1 μg, 0.5 μg, 2 μg/ml
  inhibiting effect: weak
[2]; HT-29, 10, 50 μg/ml, third day of administration
  peak inhibiting effect: 95%
[2]; HT-29, high concentration 10, 50 μg/ml
  inhibiting effect: strong
[2]; HT-29, low concentration 0.1 μg, 0.5 μg, 2 μg/ml
  inhibiting effect: weak
[3]; A549, 10, 50 μg/ml, third day of administration
  peak inhibiting effect: 95%
[3]; A549, high concentration 10, 50 μg/ml
  inhibiting effect: strong
[3]; A549, low concentration 0.1 μg, 0.5 μg, 2 μg/ml
  inhibiting effect: weak
[4]; [5]
  Death number (r): 0
  Lethal rate(%): 0%
  Probability unit (y): 0
[4]; [6]
  Death number (r): 1
  Lethal rate(%): 10%
  Probability unit (y): 3.72
[4]; [7]
  Death number (r): 3
  Lethal rate(%): 30%
  Probability unit (y): 4.48
[4]; [8]
  Death number (r): 6
  Lethal rate(%): 60%
  Probability unit (y): 5.25
[4]; [9]
  Death number (r): 10
  Lethal rate(%): 100%
